Experimental data published in ChEMBL document CHEMBL1268958, “Synthesis and antihyperlipidemic activity of novel coumarin bisindole derivatives” (2010).

What was measured:
Assay type in all cases: functional, Mesocricetus auratus
Syrian golden hamster [1] = assay: Antihyperlipidemic activity against high fat diet fed gloden syrian hamster assessed as change in total cholesterol level at 10 mg/kg, po for 7 days
Syrian golden hamster [2] = assay: Antihyperlipidemic activity against high fat diet fed gloden syrian hamster assessed as change in triglyceride level at 10 mg/kg, po for 7 days
Syrian golden hamster [3] = assay: Antihyperlipidemic activity against high fat diet fed gloden syrian hamster assessed as change in HDL level at 10 mg/kg, po for 7 days
Syrian golden hamster [4] = assay: Antihyperlipidemic activity against high fat diet fed gloden syrian hamster assessed as change in HDL to total cholesterol ratio at 10 mg/kg, po for 7 days
Syrian golden hamster [5] = assay: Antihyperlipidemic activity against high fat diet fed gloden syrian hamster assessed as change in HDL level at 25 mg/kg, po for 7 days
Syrian golden hamster [6] = assay: Antihyperlipidemic activity against high fat diet fed gloden syrian hamster assessed as change in total cholesterol level at 25 mg/kg, po for 7 days
Syrian golden hamster [7] = assay: Antihyperlipidemic activity against high fat diet fed gloden syrian hamster assessed as change in triglyceride level at 25 mg/kg, po for 7 days
Syrian golden hamster [8] = assay: Antihyperlipidemic activity against high fat diet fed gloden syrian hamster assessed as change in HDL to total cholesterol ratio at 25 mg/kg, po for 7 days

| Structure (SMILES) | Activity (Syrian golden hamster [1]) | Activity (Syrian golden hamster [2]) | Activity (Syrian golden hamster [3]) | Activity (Syrian golden hamster [4]) | Activity (Syrian golden hamster [5]) | Activity (Syrian golden hamster [6]) | Activity (Syrian golden hamster [7]) | Activity (Syrian golden hamster [8]) |
| --- | --- | --- | --- | --- | --- | --- | --- | --- |
| COC(=O)c1cc2cc(C(c3c(C)n(C)c4ccccc34)c3c(C)n(C)c4ccccc34)c3ccccc3c2oc1=O | -4% | -29% | -3% | 2% | – | – | – | – |
| CCOC(=O)c1cc2cc(C(c3cn(C)c4ccccc34)c3cn(C)c4ccccc34)c3ccccc3c2oc1=O | 3% | -33% | 22% | 18% | – | – | – | – |
| CCOC(=O)c1cc2cc(C(c3c(C)[nH]c4ccccc34)c3c(C)[nH]c4ccccc34)c3ccccc3c2oc1=O | -7% | -35% | 14% | 24% | – | – | – | – |
| CCOC(=O)c1cc2cc(C(c3c(C)n(C)c4ccccc34)c3c(C)n(C)c4ccccc34)c3ccccc3c2oc1=O | -38% | -45% | -31% | 11% | – | – | – | – |
| CCOC(=O)c1cc2cc(C(c3c(C)n(C)c4ccccc34)c3c(C)n(C)c4ccccc34)cc(C(C)CC)c2oc1=O (stereo unspecified) | -43% | -57% | -20% | 39% | – | – | – | – |
| COC(=O)c1cc2cc(C(c3c[nH]c4ccccc34)c3c[nH]c4ccccc34)c3ccccc3c2oc1=O | -12% | -50% | 13% | 30% | – | – | – | – |
| COC(=O)c1cc2cc(C(c3cn(C)c4ccccc34)c3cn(C)c4ccccc34)c3ccccc3c2oc1=O | 6% | -35% | -17% | 12% | – | – | – | – |
| COC(=O)c1cc2cc(C(c3c(C)[nH]c4ccccc34)c3c(C)[nH]c4ccccc34)c3ccccc3c2oc1=O | -17% | -33% | 1% | 24% | – | – | – | – |
| CCOC(=O)c1cc2cc(C(c3c[nH]c4ccccc34)c3c[nH]c4ccccc34)c3ccccc3c2oc1=O | -20% | -55% | 14% | 42% | – | – | – | – |
| CCOC(=O)c1cc2cc(C(c3c[nH]c4ccccc34)c3c[nH]c4ccccc34)cc(C(C)CC)c2oc1=O (stereo unspecified) | 28% | -10% | 11% | -14% | – | – | – | – |
| CCOC(=O)c1cc2cc(C(c3cn(C)c4ccccc34)c3cn(C)c4ccccc34)cc(C(C)CC)c2oc1=O (stereo unspecified) | -36% | -43% | -24% | 18% | – | – | – | – |
| CCOC(=O)c1cc2cc(C(c3c(C)[nH]c4ccccc34)c3c(C)[nH]c4ccccc34)cc(C(C)CC)c2oc1=O (stereo unspecified) | -21% | -39% | -13% | 9% | – | – | – | – |
| CC(C)c1c(C(=O)Nc2ccccc2)c(-c2ccccc2)c(-c2ccc(F)cc2)n1CC[C@@H](O)C[C@@H](O)CC(=O)O [ATORVASTATIN] | -14% | -63% | 15% | 35% | – | – | – | – |
| CC[C@H](C)C(=O)O[C@H]1C[C@@H](C)C=C2C=C[C@H](C)[C@H](CC[C@@H]3C[C@@H](O)CC(=O)O3)[C@H]21 [LOVASTATIN] | – | – | – | – | 3% | -9% | -29% | 12% |
